From patent publication US8022209B2, “Substituted nitrogen-containing heteroaryl derivatives useful as modulators of the histamine H4 receptor” (Janssen Pharmaceutica NV, priority 2007, dated 2011) come the findings set out here.

Bounds are passed on as bounds.

This experiment concerns the target T1, human histamine H4 receptor (Homo sapiens, UniProt Q9H3N8).
T1 construct: expressed in transfected cells; host or cells: SK-N-MC cells or COS7 cells, transiently transfected with pH4R; cell membranes
Briefly: Binding Assay on Recombinant Human Histamine H4 Receptor. Particulars: competition binding vs 3H-histamine (5 nM, KD 5 nM), membranes of SK-N-MC or COS7 cells transfected with human H4R; Cheng-Prusoff; average of results obtained. As to the method: Binding Assay on Recombinant Human Histamine H4 Receptor
SK-N-MC cells or COS7 cells were transiently transfected with pH4R and grown in 150 cm^2 tissue culture dishes. Cells were washed with saline solution, scraped with a cell scraper and collected by centrifugation (1000 rpm, 5 min). Cell membranes were prepared by homogenization of the cell pellet in 20 mM Tris-HCl with a polytron tissue homogenizer for 10 sec at high speed. Homogenate was centrifuged at 1000 rpm for 5 min at 4° C. The supernatant was then collected and centrifuged at 20,000×g for 25 min at 4° C. The final pellet was resuspended in 50 mM Tris-HCl. Cell membranes were incubated with ^3H-histamine (5-70 nM) in the presence or absence of excess histamine (10,000 nM). Incubation occurred at room temperature for 45 min. Membranes were harvested by rapid filtration over Whatman GF/C filters and washed 4 times with ice-cold 50 mM Tris HCl. Filters were then dried, mixed with scintillant and counted for radioactivity. SK-N-MC or COS7 cells expressing human histamine H4 receptor were used to measure the affinity of binding of other compounds and their ability to displace ^3H-ligand binding by incubating the above-described reaction in the presence of various concentrations of inhibitor or compound to be tested. For competition binding studies using ^3H-histamine, Ki values were calculated, based on an experimentally determined KD value of 5 nM and a ligand concentration of 5 nM, according to Y. C.

T1 sequence (Q9H3N8 whole entry): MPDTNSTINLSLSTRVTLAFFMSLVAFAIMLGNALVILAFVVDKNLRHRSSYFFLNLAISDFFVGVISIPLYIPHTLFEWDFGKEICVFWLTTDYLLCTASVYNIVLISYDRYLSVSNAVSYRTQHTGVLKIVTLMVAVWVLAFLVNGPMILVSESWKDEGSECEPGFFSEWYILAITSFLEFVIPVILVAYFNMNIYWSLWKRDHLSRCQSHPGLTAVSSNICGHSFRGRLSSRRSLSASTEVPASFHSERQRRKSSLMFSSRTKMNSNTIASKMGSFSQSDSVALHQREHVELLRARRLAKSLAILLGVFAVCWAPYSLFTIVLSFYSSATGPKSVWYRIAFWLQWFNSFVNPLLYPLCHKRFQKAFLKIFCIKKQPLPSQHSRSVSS

`CNC1CCN(c2ccnc(-c3ccsc3)c2)C1` (stereo not shown) [compound 66]: the Ki was 216 nM.
Then `Cc1ccc(-c2cc(N3CCN(C)CC3)ccn2)cc1Cl` [compound 37], with 65 nM; and `CN1CCN(c2ncnc(-c3sccc3Cl)n2)CC1` [compound 17, 2-(3-Chloro-thiophen-2-yl)-4-(4-methyl-piperazin-1-yl)-[1,3,5]triazine], with 8 nM.
Under `CN1CCN(c2ncnc(-c3ccncc3)n2)CC1` [compound 20, 2-(4-Methyl-piperazin-1-yl)-4-pyridin-4-yl-[1,3,5]triazine] stands 950 nM; under `Cc1nc(-c2sccc2Br)nc(N2CCN(C)CC2)n1` [compound 23, 2-(3-Bromo-thiophen-2-yl)-4-methyl-6-(4-methyl-piperazin-1-yl)-[1,3,5]triazine], 31 nM; under `CN1CCN(c2ncnc(-c3cccnc3)n2)CC1` [compound 19, 2-(4-Methyl-piperazin-1-yl)-4-pyridin-3-yl-[1,3,5]triazine], 172 nM.
Then `CN1CCN(c2ncnc(-c3ccc(F)cc3F)n2)CC1` [compound 122, 2-(2,4-Difluoro-phenyl)-4-(4-methyl-piperazin-1-yl)-[1,3,5]triazine], with 94 nM.
For the compound `Cc1cc(-c2ncnc(N3CCN(C)CC3)n2)ccc1F` [compound 115, 2-(4-Fluoro-3-methyl-phenyl)-4-(4-methyl-piperazin-1-yl)-[1,3,5]triazine], the Ki came out at 111 nM.
Regarding `CN1CCN(c2ncnc(-c3ccc(Cl)nc3)n2)CC1` [compound 16, 2-(6-Chloro-pyridin-3-yl)-4-(4-methyl-piperazin-1-yl)-[1,3,5]triazine], the Ki stood at 50 nM.
Under `Cc1ccc(-c2ncnc(N3CCN(C)CC3)n2)cc1F` [compound 3, 2-(3-Fluoro-4-methyl-phenyl)-4-(4-methyl-piperazin-1-yl)-[1,3,5]triazine] stands 22 nM; under `CN1CCC(N(C)c2ccnc(-c3ccsc3)c2)C1` (stereo not shown) [compound 40], 867 nM.
In the case of `Cc1nc(-c2cc(F)c(F)c(F)c2)nc(N2CCN(C)CC2)n1` [compound 147, 2-Methyl-4-(4-methyl-piperazin-1-yl)-6-(3,4,5-trifluoro-phenyl)-[1,3,5]triazine], the Ki was determined as 193 nM.
Under `Cc1cscc1-c1cc(N2CCN(C)CC2)ccn1` [compound 29] stands 64 nM; under `CN1CCN(c2ccnc(-c3sccc3Cl)c2)CC1` [compound 148], 107 nM.
Under `CN1CCN(c2ncnc(-c3cc(F)c(F)c(F)c3)n2)CC1` [compound 11, 2-(4-Methyl-piperazin-1-yl)-4-(3,4,5-trifluoro-phenyl)-[1,3,5]triazine] stands 7 nM.
Then `CN1CCN(c2ncnc(-c3ccc(Cl)s3)n2)CC1` [compound 25, 2-(5-Chloro-thiophen-2-yl)-4-(4-methyl-piperazin-1-yl)-[1,3,5]triazine], with 66 nM.
Consider `CN1CCN(c2ncnc(-c3cccc(-c4ccccc4)c3)n2)CC1` [compound 108, 2-Biphenyl-3-yl-4-(4-methyl-piperazin-1-yl)-[1,3,5]triazine], for which the Ki was 1930 nM.
Under `CN1CCCN(c2cc(-c3cccs3)ncn2)CC1` [compound 68] stands 397 nM; under `Cc1ccc(-c2cc(N3CCN(C)CC3)ccn2)cc1` [compound 32], 129 nM.
Then `CN1CCN(c2ncnc(-c3cc(Br)cs3)n2)CC1` [compound 9], with 22 nM; and `CN1CCN(c2ncnc(-c3ccoc3)n2)CC1` [compound 6, 2-Furan-3-yl-4-(4-methyl-piperazin-1-yl)-[1,3,5]triazine], with 115 nM; and `CN1CCN(c2ccnc(-c3cccc(-c4ccccc4)c3)c2)CC1` [compound 38], with 52 nM.
Then `CN1CCN(c2ccnc(-c3cccc(Cl)c3Cl)c2)CC1` [compound 35], with 130 nM.
With `CN1CCN(c2ncnc(-c3ccc(-c4ccccc4)cc3)n2)CC1` [compound 116, 2-Biphenyl-4-yl-4-(4-methyl-piperazin-1-yl)-[1,3,5]triazine], the Ki is more than 10000 nM.
For the compound `CN1CCN(c2ncnc(-c3cc4ccccc4s3)n2)CC1` [compound 21, 2-Benzo[b]thiophen-2-yl-4-(4-methyl-piperazin-1-yl)-[1,3,5]triazine], the Ki turned out to be 2330 nM.
Then `CN1CCN(c2ccnc(-c3csc(C#N)c3)c2)CC1` [compound 129], with 443 nM.
Under `CN1CCN(c2ncnc(-c3cc(F)cc(F)c3)n2)CC1` [compound 137, 2-(3,5-Difluoro-phenyl)-4-(4-methyl-piperazin-1-yl)-[1,3,5]triazine] stands 78 nM; under `CN(C)C1CCN(c2ccnc(-c3ccsc3)c2)C1` (stereo not shown) [compound 42], 767 nM.
Under `CN1CCCN(c2ncnc(-c3sccc3Br)n2)CC1` [compound 24, 1-[4-(3-Bromo-thiophen-2-yl)-[1,3,5]triazin-2-yl]-4-methyl-[1,4]diazepane] stands 267 nM.
Turning to `Cc1ccsc1-c1ncnc(N2CCN(C)CC2)n1` [compound 140, 2-(4-Methyl-piperazin-1-yl)-4-(3-methyl-thiophen-2-yl)-[1,3,5]triazine], the Ki came out at 52 nM.
Under `COc1cscc1-c1ncnc(N2CCN(C)CC2)n1` [compound 130, 2-(4-Methoxy-thiophen-3-yl)-4-(4-methyl-piperazin-1-yl)-[1,3,5]triazine] stands 643 nM.
Under `CN1CCN(c2ccnc(-c3ccc(F)c(F)c3)c2)CC1` [compound 34] stands 90 nM.
Then `CN1CCN(c2ccnc(-c3cccc(O)c3)c2)CC1` [compound 33], with 577 nM; and `CN1CCN(c2ncnc(-c3ccsc3)n2)CC1` [compound 1, 2-(4-Methyl-piperazin-1-yl)-4-thiophen-3-yl-[1,3,5]triazine], with 44 nM.
As for `CN1CCN(c2ncnc(-c3ccc(Cl)c(Cl)c3)n2)CC1` [compound 14, 2-(3,4-Dichloro-phenyl)-4-(4-methyl-piperazin-1-yl)-[1,3,5]triazine], the Ki is 30 nM.
Then `CN1CCN(c2ncnc(-c3ccc4ccccc4c3)n2)CC1` [compound 117, 2-(4-Methyl-piperazin-1-yl)-4-naphthalen-2-yl-[1,3,5]triazine], with more than 10000 nM; and `CN1CCN(c2ncnc(-c3ccc(Br)cc3)n2)CC1` [compound 10, 2-(4-Bromo-phenyl)-4-(4-methyl-piperazin-1-yl)-[1,3,5]triazine], with 36 nM; and `CN1CCN(c2ncnc(-c3ccc(Br)s3)n2)CC1` [compound 18, 2-(5-Bromo-thiophen-2-yl)-4-(4-methyl-piperazin-1-yl)-[1,3,5]triazine], with 37 nM.
Under `CN1CCN(c2ncnc(-c3csc4ccccc34)n2)CC1` [compound 144, 2-Benzo[b]thiophen-3-yl-4-(4-methyl-piperazin-1-yl)-[1,3,5]triazine] stands 347 nM; under `CN1CCCN(c2ccnc(-c3ccsc3)c2)CC1` [compound 39], 433 nM.
Consider `CN1CCN(c2ncnc(-c3ccc(F)cc3Cl)n2)CC1` [compound 138, 2-(2-Chloro-4-fluoro-phenyl)-4-(4-methyl-piperazin-1-yl)-[1,3,5]triazine], for which the Ki came to 99 nM.
Under `Cc1ccc(-c2ncnc(N3CCN(C)CC3)n2)cc1` [compound 4, 2-(4-Methyl-piperazin-1-yl)-4-p-tolyl-[1,3,5]triazine] stands 75 nM; under `CN1CCN(c2ncnc(-c3ccccc3)n2)CC1` [compound 118, 2-(4-Methyl-piperazin-1-yl)-4-phenyl-[1,3,5]triazine], 128 nM; under `CN1CCN(c2ncnc(-c3cc(Cl)sc3Cl)n2)CC1` [compound 143, 2-(2,5-Dichloro-thiophen-3-yl)-4-(4-methyl-piperazin-1-yl)-[1,3,5]triazine], 193 nM.
With `CN1CCN(c2ncnc(-c3cccc4ccccc34)n2)CC1` [compound 112, 2-(4-Methyl-piperazin-1-yl)-4-naphthalen-1-yl-[1,3,5]triazine], the Ki was 1510 nM.
Regarding `CN(C)CCN(C)c1ccnc(-c2ccsc2)c1` [compound 41], the Ki worked out at 2600 nM.
Then `CN1CCN(c2ccnc(-c3ccoc3)c2)CC1` [compound 28], with 25 nM; and `CN1CCN(c2ncnc(-c3ccc([N+](=O)[O-])cc3)n2)CC1` [compound 121, 2-(4-Methyl-piperazin-1-yl)-4-(4-nitro-phenyl)-[1,3,5]triazine], with 107 nM.
As to `CN1CCN(c2ncnc(-c3ccccn3)n2)CC1` [compound 139, 2-(4-Methyl-piperazin-1-yl)-4-pyridin-2-yl-[1,3,5]triazine], the Ki is 857 nM.
For the compound `CN1CCN(c2ncnc(-c3ccc(-c4ccccn4)s3)n2)CC1` [compound 131, 2-(4-Methyl-piperazin-1-yl)-4-(5-pyridin-2-yl-thiophen-2-yl)-[1,3,5]triazine], the Ki is more than 10000 nM.
Then `CN1CCN(c2ncnc(-c3ccc(F)c(F)c3)n2)CC1` [compound 5, 2-(3,4-Difluoro-phenyl)-4-(4-methyl-piperazin-1-yl)-[1,3,5]triazine], with 33 nM; and `CN1CCN(c2ccnc(-c3ccsc3)c2)CC1` [compound 26], with 37 nM.

In general, Ki refers to the equilibrium dissociation constant of an inhibitor or competing ligand from its target.
